From the supplement of paper PMC10307832

Tests used:
Assay in all cases: relative viability (nuclei count vs DMSO), 5 days (fraction); higher = more cells survive
[1] = compound: CC(C)=CC[C@@H](O)C1=CC(=O)c2c(O)ccc(O)c2C1=O [Shikonin] + O=C(CCCCCCC(=O)Nc1ccccc1)NO [Vorinostat] (partner 1 µM)
Method in brief: (§1)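 Lung cancer cell lines were pin-tool dosed in 1536-well plates on the day after seeding, with either a lone drug or a fixed anchor-drug dose plus five library-drug doses (not always all listed) in √10 steps. Nuclei were counted on 4× images after 5 days. Relative viability is the ratio of treated-well to vehicle-well nuclei counts, with each value a median of duplicate plates.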

[2] = compound: CC(C)N(CCCNC(=O)Nc1ccc(C(C)(C)C)cc1)C[C@H]1O[C@@H](n2ccc3c(N)ncnc32)[C@H](O)[C@@H]1O + O=C(CCCCCCC(=O)Nc1ccccc1)NO [Vorinostat] (partner 1 µM)
Method in brief: as §1

[3] = compound: CC(C)=CC[C@@H](O)C1=CC(=O)c2c(O)ccc(O)c2C1=O [Shikonin] + COc1cc2c(Oc3ccc(NC(=O)C4(C(=O)Nc5ccc(F)cc5)CC4)cc3F)ccnc2cc1OCCCN1CCOCC1 [Foretinib] (partner 0.25 µM)
Method in brief: as §1

[4] = compound: CC(C)=CC[C@@H](O)C1=CC(=O)c2c(O)ccc(O)c2C1=O [Shikonin] + Cc1nc(NC(=O)N2CCC[C@H]2C(N)=O)sc1-c1ccnc(C(C)(C)C(F)(F)F)c1 [Alpelisib] (partner 2 µM)
Method in brief: as §1

Q: How did the relative viability ([1]; first compound 0.01 µM) turn out when UMC-11 was run?
A: 0.322

Q: And the relative viability ([1]; first compound 0.1 µM)?
A: 0.34

Q: And the relative viability ([1]; first compound 0.3162 µM)?
A: 0.415

Q: What about the relative viability ([1]; first compound 1 µM) of the same cell line?
A: 0.396

Q: What about the relative viability ([2]; first compound 0.08 µM) of the same cell line?
A: 0.357

Q: What about the relative viability ([2]; first compound 0.253 µM) of the same cell line?
A: 0.419

Q: What about the relative viability ([2]; first compound 0.8 µM) of the same cell line?
A: 0.431

Q: And the relative viability ([2]; first compound 2.53 µM)?
A: 0.35

Q: What about the relative viability ([2]; first compound 8 µM) of the same cell line?
A: 0.386

Q: What about the relative viability ([3]; first compound 0.01 µM) of the same cell line?
A: 1.02

Q: What about the relative viability ([3]; first compound 0.1 µM) of the same cell line?
A: 1.13

Q: What about the relative viability ([3]; first compound 0.3162 µM) of the same cell line?
A: 1.13

Q: And the relative viability ([3]; first compound 1 µM)?
A: 1.07

Q: What about the relative viability ([4]; first compound 0.01 µM) of the same cell line?
A: 0.875

Q: What about the relative viability ([4]; first compound 0.1 µM) of the same cell line?
A: 1.08

Q: And the relative viability ([4]; first compound 0.3162 µM)?
A: 0.996

Q: And the relative viability ([4]; first compound 1 µM)?
A: 1.18
